Consider 23 compounds from ChEMBL document CHEMBL1137182, “Ligand conformation has a definitive effect on 5-HT1A and serotonin reuptake affinity” (Bioorg Med Chem Lett, 2004).

In assay [1] the target is Sodium-dependent serotonin transporter (Homo sapiens, UniProt P31645). The assay can be described thus: Inhibitory activity against human- serotonin reuptake transmitter using [3H]-citalopram as a radioligand.
Assay [2] can be described thus: Inhibitory activity against 5-hydroxytryptamine receptor 1A using (+/-)-[3H]-8-hydroxydipropylaminotetralin. Also on record: species or system Homo sapiens.

Bounds are passed on as bounds.

Chain of Sodium-dependent serotonin transporter (P31645 whole entry): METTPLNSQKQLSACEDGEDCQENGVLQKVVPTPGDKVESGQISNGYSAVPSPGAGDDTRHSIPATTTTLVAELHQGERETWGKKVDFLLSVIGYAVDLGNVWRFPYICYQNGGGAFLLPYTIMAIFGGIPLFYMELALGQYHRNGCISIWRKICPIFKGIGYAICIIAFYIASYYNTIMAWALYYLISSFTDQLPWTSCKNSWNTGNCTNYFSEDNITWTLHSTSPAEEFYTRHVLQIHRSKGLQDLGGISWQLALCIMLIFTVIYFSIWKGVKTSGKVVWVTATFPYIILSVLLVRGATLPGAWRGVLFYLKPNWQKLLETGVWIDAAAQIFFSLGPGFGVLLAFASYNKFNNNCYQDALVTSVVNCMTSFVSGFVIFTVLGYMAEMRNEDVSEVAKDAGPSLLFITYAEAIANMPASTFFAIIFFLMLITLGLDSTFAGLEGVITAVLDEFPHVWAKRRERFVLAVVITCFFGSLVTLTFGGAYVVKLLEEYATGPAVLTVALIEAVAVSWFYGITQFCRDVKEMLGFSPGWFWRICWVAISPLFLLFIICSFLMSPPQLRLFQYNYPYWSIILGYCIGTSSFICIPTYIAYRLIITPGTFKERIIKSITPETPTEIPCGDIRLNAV

As a reminder, the IC50 is the concentration needed to halve the response being measured. A high value points to lower potency. As for `O=C1O[C@]2(CC[C@@H](N3CCC(Cc4ccccc4Br)CC3)CC2)c2ccc3c(c21)OCO3`, the IC50 came to 45 nM in assay [1] and 9.6 nM in assay [2]. Consider `O=C1O[C@]2(CC[C@@H](N3CCC(Cc4ccccc4Cl)CC3)CC2)c2ccc3c(c21)OCO3`, for which the half-maximal inhibitory concentration (IC50) in assay [1] was determined as 140 nM; in assay [2], 10 nM. Taken in the same sequence, the figures for `O=C1O[C@]2(CC[C@@H](N3CCN(Cc4ccccc4I)CC3)CC2)c2ccc3c(c21)OCCO3` were 54 nM and 9.6 nM. Consider `O=C1O[C@]2(CC[C@@H](N3CCC(Cc4ccccc4C(F)(F)F)CC3)CC2)c2ccc3c(c21)OCCO3`, for which the IC50 was found to be 510 nM in assay [1] and 43 nM in assay [2].

On to `COc1ccc(F)c(CC2CCN([C@H]3CC[C@]4(CC3)OC(=O)c3c5c(ccc34)OCO5)CC2)c1`, for which the IC50 in assay [1] is 400 nM. On to `O=C1O[C@]2(CC[C@@H](N3CCC(Cc4cc(F)ccc4Br)CC3)CC2)c2ccc3c(c21)OCO3`, for which the IC50 in assay [1] is 82 nM; in assay [2], 14 nM. For `O=C1O[C@]2(CC[C@@H](N3CCC(Cc4ccccc4Br)CC3)CC2)c2ccc3c(c21)OCCO3`, in that order: 73 nM and 9.8 nM. In the case of `O=C1O[C@]2(CC[C@@H](N3CCC(Cc4ccccc4Cl)CC3)CC2)c2ccc3c(c21)OCCO3`, the values for the half-inhibitory concentration (IC50) in assay [1] and in assay [2] were 100 nM and 19 nM, respectively. Taken in the same sequence, the figures for `COc1ccc(F)c(CC2CCN([C@H]3CC[C@]4(CC3)OC(=O)c3c5c(ccc34)OCCO5)CC2)c1` were 430 nM and 11 nM. For `Oc1nc2cc3c(cc2c2c1[C@@H](N1CCN(Cc4ccccc4I)CC1)CCC2)OCO3`, the concentration for half-maximal inhibition (IC50) is 23 nM in assay [1] and over 1000 nM in assay [2].

Turning to `COc1ccc(Br)c(CC2CCN([C@H]3CC[C@]4(CC3)OC(=O)c3c5c(ccc34)OCO5)CC2)c1`, the values for the IC50 in assay [1] and in assay [2] were 91 nM and 2.4 nM, respectively. For `O=C1O[C@]2(CC[C@@H](N3CCC(Cc4cc(F)ccc4F)CC3)CC2)c2ccc3c(c21)OCO3`, in that order: 250 nM and 22 nM. For `O=C1O[C@]2(CC[C@@H](N3CCC(Cc4cc(F)ccc4F)CC3)CC2)c2ccc3c(c21)OCCO3`, in that order: 110 nM and 14 nM. Taken in the same sequence, the figures for `O=C1O[C@]2(CC[C@@H](N3CCN(Cc4ccccc4I)CC3)CC2)c2ccc3c(c21)OCO3` were 48 nM and 9.6 nM. With `COc1ccccc1CC1CCN([C@H]2CC[C@]3(CC2)OC(=O)c2c4c(ccc23)OCO4)CC1`, the half-inhibitory concentration (IC50) is 150 nM in assay [1] and 6.7 nM in assay [2]. Taken in the same sequence, the figures for `Oc1nc2cc3c(cc2c2c1[C@@H](N1CCC(Cc4cc(F)ccc4F)CC1)CCC2)OCO3` (stereo in doubt; 3o) were 5 nM and 440 nM. In the case of `O=C1O[C@]2(CC[C@@H](N3CCC(Cc4cc(F)ccc4Br)CC3)CC2)c2ccc3c(c21)OCCO3`, the IC50 in assay [1] was found to be 77 nM; in assay [2], 11 nM. Taken in the same sequence, the figures for `O=C1O[C@]2(CC[C@@H](N3CCC(Cc4cc(Cl)ccc4Cl)CC3)CC2)c2ccc3c(c21)OCO3` were 92 nM and 2.3 nM.

In the case of `COc1ccccc1CC1CCN([C@H]2CC[C@]3(CC2)OC(=O)c2c4c(ccc23)OCCO4)CC1`, the IC50 in assay [1] amounted to 59 nM; in assay [2] it was 4.3 nM.

Consider `O=C1O[C@]2(CC[C@@H](N3CCC(Cc4ccccc4C(F)(F)F)CC3)CC2)c2ccc3c(c21)OCO3`, for which the results for the concentration for half-maximal inhibition (IC50) in assay [1] and in assay [2] were 180 nM and 67 nM, respectively.

For `O=C1O[C@]2(CC[C@@H](N3CCC(Cc4ccccc4F)CC3)CC2)c2ccc3c(c21)OCCO3`, the results for the half-maximal inhibitory concentration (IC50) in assay [1] and in assay [2] were 480 nM and 12 nM, respectively. Taken in the same sequence, the figures for `Oc1nc2cc3c(cc2c2c1[C@@H](N1CCC(Cc4cc(F)ccc4F)CC1)CCC2)OCO3` (stereo in doubt; 4o) were 14 nM and 450 nM. In the case of `O=C1O[C@]2(CC[C@@H](N3CCC(Cc4ccccc4F)CC3)CC2)c2ccc3c(c21)OCO3`, the values for the half-inhibitory concentration (IC50) in assay [1] and in assay [2] were 410 nM and 14 nM, respectively.
